Measurements as given in publication PMC10746543, “Design principles for cyclin K molecular glue degraders” (Nature Chemical Biology, 2023).
Values joined by “and” are separate entries in the source; they are usually repeats but may differ in a detail not shown here. Identical values can stand only once. Like-named read-outs stand apart in the source and are kept apart here. Each block holds one compound with its values, some of them ahead of it.

What was measured:
CDK12–cyclin K and DDB1 = molecular target: T1, CDK12–cyclin K and DDB1 (Homo sapiens, UniProt Q16531+Q9NYV4, K965R); test: TR-FRET ternary complex formation assay (compound titration); format: binding
T1 construct: His6–CDK12 (a.a. 713–1,052); full-length or beta-propeller B domain deletion (ΔBPB: a.a. 396–705 deleted) constructs of His6–DDB1ΔBPB, StrepII–Avi–DDB1, or His6–Spy–DDB1; made in house; host or cells: Trichoplusia ni High Five insect cells (baculovirus)
From the text: A 70 μs delay was employed to reduce background fluorescence. The TR-FRET signal was obtained through calculating the ratio of 520 nm to 490 nm fluorescence, and Prism 9 (GraphPad) was used for further data analysis.

[1] = system: cyclin K–eGFP degradation reporter; test: Cyclin K reporter stability analysis (dual-color cyclin K–eGFP reporter); format: cell-based, human; settings: Supplementary Table 2; HEK293T cycK-eGFP reporter, 5 h; read-out: Cellular assays DC50
Description: HEK293T–Cas9 cells expressing the cyclin K–eGFP degradation reporter were resuspended at 1 × 10^6 ml^−1 and 50 µl of cell suspension was seeded in non-cell-culture-treated 384-well plates. Shortly after, cells were treated with drug or DMSO for 5 h. […] The fluorescent signal was quantified by flow cytometry (LSRFortessa flow cytometer, BD Biosciences). Using FlowJo (flow cytometry analysis software, BD Biosciences), the geometric mean of the eGFP and mCherry fluorescent signal for round and mCherry-positive cells was calculated. The ratio of eGFP to mCherry was normalized to the average of three DMSO-treated controls.

HEK293T cells = test: Drug sensitivity assay (CellTiter-Glo viability) with or without MLN4924 pretreatment; format: cell-based, human; settings: Supplementary Table 2; for EC50: Homo sapiens, HEK-293T, HEK293T viability, 72 h, compound alone, read-out: Cellular assays EC50; for Toxicity rescue: MLN4924-mediated cytotoxicity rescue, 10 µM used where n.d.
Description: HEK293T–Cas9 cells were resuspended at 0.15 × 10^6 ml^−1 treated with DMSO or 100 nM MLN4924 and plated on 384-well plates. After 2 h, the indicated drugs were dispensed with a D300 digital dispenser (Tecan). After 3 days of drug exposure, cell viability was assessed using the CellTiter-Glo luminescent assay (Promega, G7572) on an CLARIOstar Plus, MARS 3.4 (BMG LabTech). Cell viabilities were calculated relative to DMSO controls.

CDK12–cyclin K = CDK12–cyclin K (Homo sapiens, UniProt Q9NYV4); test: Lanthascreen kinase binding assay, CDK12; settings: for Lanthascreen raw signal, sheet CDK12: series r1, duplicates
Description: (§1) Lanthascreen experiments were performed using commercially available reagents (Thermo Fisher) and according to the manufacturer’s instructions.

CDK9–cyclin T = molecular target: T2, CDK9–cyclin T (Homo sapiens, UniProt P50750); test: Lanthascreen kinase binding assay, CDK9; settings: for Lanthascreen TR-FRET signal (raw ratio), sheet CDK9: first titration set (r1), duplicates
T2 construct: purchased Thermo Fisher
Description: as §1

CDK2–cyclin A = molecular target: T3, CDK2–cyclin A (Homo sapiens, UniProt P24941); test: Lanthascreen kinase binding assay, CDK2; settings: for Lanthascreen signal, sheet CDK2: raw replicates, experiment r1-r11
T3 construct: purchased Thermo Fisher
Description: as §1

[2] = Supplementary Table 2, read-out: TR-FRET EC50 TR-FRET
[3] = in vitro complex formation, 50 nM CDK12–cyclin K, 100 nM DDB1, text and figures, read-out: TR-FRET EC50

T1 sequence (Q9NYV4 713-1052 K965R): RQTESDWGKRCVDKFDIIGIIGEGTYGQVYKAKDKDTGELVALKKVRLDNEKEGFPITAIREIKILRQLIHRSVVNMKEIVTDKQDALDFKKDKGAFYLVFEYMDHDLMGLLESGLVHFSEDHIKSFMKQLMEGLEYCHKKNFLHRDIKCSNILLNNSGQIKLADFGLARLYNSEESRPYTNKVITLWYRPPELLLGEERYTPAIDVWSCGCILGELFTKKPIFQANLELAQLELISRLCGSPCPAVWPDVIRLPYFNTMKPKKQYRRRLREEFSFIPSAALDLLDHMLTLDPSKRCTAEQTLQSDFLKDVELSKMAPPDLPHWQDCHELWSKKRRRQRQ
T1 sequence (O75909 1-267 partner): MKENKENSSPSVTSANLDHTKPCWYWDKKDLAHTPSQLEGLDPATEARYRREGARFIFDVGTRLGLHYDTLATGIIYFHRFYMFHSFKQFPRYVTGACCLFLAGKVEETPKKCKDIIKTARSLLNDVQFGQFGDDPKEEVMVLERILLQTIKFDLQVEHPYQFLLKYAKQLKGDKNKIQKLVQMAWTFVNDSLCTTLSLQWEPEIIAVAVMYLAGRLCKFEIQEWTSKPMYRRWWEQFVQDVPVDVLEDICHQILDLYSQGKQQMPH
T1 sequence (Q16531 whole entry): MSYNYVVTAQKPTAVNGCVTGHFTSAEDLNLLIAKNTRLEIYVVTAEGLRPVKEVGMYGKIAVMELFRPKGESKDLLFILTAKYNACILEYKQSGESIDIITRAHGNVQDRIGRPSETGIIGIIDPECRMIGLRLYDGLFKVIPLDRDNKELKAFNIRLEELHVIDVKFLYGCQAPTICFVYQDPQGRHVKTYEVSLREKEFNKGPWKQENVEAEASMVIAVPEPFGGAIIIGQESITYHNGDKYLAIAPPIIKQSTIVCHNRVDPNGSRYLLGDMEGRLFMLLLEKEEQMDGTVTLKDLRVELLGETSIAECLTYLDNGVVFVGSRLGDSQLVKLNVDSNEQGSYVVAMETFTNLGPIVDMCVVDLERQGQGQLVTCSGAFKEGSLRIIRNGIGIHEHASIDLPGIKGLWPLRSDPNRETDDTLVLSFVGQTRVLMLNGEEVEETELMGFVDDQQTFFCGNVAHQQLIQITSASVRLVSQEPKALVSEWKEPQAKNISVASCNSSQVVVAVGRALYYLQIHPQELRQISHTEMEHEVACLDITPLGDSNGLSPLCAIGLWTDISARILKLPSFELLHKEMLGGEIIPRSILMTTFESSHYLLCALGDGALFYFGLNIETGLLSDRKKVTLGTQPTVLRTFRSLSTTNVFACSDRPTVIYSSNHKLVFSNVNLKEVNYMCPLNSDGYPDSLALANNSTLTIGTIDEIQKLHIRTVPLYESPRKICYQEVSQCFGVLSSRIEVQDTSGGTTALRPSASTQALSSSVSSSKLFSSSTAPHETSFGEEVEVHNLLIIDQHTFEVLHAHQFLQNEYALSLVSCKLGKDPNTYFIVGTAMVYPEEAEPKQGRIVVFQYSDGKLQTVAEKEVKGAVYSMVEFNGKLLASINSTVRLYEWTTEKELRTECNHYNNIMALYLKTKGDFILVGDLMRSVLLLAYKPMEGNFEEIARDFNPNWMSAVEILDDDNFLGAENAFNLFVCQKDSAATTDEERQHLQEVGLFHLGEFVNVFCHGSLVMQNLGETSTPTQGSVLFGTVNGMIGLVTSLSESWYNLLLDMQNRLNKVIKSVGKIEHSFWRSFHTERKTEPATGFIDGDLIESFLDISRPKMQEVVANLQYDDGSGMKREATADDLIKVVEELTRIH
Chain of CDK12–cyclin K (Q9NYV4 713-1052): as the sequence (Q9NYV4 713-1052 K965R) above, with R253K counted along it
Chain of CDK12–cyclin K (O75909 1-267 partner limits assumed): as the sequence (O75909 1-267 partner) above
T2 sequence (P50750 whole entry): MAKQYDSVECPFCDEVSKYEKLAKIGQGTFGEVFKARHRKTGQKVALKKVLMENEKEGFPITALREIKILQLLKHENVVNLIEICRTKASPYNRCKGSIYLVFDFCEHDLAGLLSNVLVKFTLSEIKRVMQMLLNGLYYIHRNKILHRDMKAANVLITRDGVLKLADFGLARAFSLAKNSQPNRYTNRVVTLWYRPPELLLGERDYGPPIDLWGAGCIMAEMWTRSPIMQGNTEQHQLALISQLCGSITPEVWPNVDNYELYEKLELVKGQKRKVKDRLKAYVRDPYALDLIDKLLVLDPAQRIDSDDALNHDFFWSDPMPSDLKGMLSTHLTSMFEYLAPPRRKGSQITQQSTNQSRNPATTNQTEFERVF
T2 sequence (O60563 whole entry partner): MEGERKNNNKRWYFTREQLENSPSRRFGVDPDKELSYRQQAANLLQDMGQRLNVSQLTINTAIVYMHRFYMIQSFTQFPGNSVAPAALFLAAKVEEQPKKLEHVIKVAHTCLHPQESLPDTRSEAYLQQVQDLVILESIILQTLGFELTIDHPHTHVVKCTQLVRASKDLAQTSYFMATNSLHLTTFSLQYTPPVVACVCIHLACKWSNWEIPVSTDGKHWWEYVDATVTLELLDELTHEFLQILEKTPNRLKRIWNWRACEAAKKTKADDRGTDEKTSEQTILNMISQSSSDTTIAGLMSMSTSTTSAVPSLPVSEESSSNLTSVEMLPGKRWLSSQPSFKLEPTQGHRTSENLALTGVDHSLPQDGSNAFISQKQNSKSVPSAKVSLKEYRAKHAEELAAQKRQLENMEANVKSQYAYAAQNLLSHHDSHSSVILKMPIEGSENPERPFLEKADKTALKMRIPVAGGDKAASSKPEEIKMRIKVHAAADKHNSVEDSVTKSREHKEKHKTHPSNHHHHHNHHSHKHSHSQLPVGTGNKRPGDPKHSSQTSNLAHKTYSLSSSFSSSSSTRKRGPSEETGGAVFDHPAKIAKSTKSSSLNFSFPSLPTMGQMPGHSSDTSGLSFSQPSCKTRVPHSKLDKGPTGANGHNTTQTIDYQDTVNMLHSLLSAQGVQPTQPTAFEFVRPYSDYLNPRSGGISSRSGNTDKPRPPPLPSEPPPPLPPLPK

EC50 (CDK12–cyclin K and DDB1; [2]): 704 nM
TR-FRET signal at compound concentration 4.68 nM (CDK12–cyclin K and DDB1; compound concentration 4.68 nM, raw replicate titration data): 0.2134 and 0.2299 and 0.1361 and 0.1347
TR-FRET signal at compound concentration 21.6 nM (CDK12–cyclin K and DDB1; compound concentration 21.6 nM, raw replicate titration data): 0.2243 and 0.2471 and 0.1497 and 0.153
TR-FRET signal at compound concentration 36 nM (CDK12–cyclin K and DDB1; compound concentration 36 nM, raw replicate titration data): 0.2585 and 0.3171 and 0.1771 and 0.1787
TR-FRET signal at compound concentration 79.2001 nM (CDK12–cyclin K and DDB1; compound concentration 79.2001 nM, raw replicate titration data): 0.3449 and 0.4117 and 0.2284 and 0.2341
TR-FRET signal at compound concentration 158.4 nM (CDK12–cyclin K and DDB1; compound concentration 158.4 nM, raw replicate titration data): 0.4712 and 0.5868 and 0.3097 and 0.3219
TR-FRET signal at compound concentration 309.6 nM (CDK12–cyclin K and DDB1; compound concentration 309.6 nM, raw replicate titration data): 0.6548 and 0.8142 and 0.4579 and 0.474
TR-FRET signal at compound concentration 626.401 nM (CDK12–cyclin K and DDB1; compound concentration 626.401 nM, raw replicate titration data): 0.9256 and 1.1545 and 0.6903 and 0.7002
TR-FRET signal at compound concentration 1252.8 nM (CDK12–cyclin K and DDB1; compound concentration 1252.8 nM, raw replicate titration data): 1.214 and 1.445 and 0.9334 and 0.9779
TR-FRET signal at compound concentration 2448 nM (CDK12–cyclin K and DDB1; compound concentration 2448 nM, raw replicate titration data): 1.442 and 1.672 and 1.232 and 1.263
TR-FRET signal at compound concentration 9936.01 nM (CDK12–cyclin K and DDB1; compound concentration 9936.01 nM, raw replicate titration data): 1.602 and 1.881 and 1.44 and 1.453
TR-FRET signal at compound concentration 20016 nM (CDK12–cyclin K and DDB1; compound concentration 20016 nM, raw replicate titration data): 1.655 and 1.896 and 1.497 and 1.485
EC50 (CDK12–cyclin K and DDB1; [3]): 704 ± 108 nM
EC50 (CDK12–cyclin K and DDB1; sheet MOESM7, read-out: log TR-FRET EC50 (converted)): 704 nM
DC50 [1]: > 10 µM
SMILES: CC[C@H](CO)Nc1nc(Nc2ccc(-c3ccccn3)cc2)c2ncn(C(C)C)c2n1 [DRF053, reference compound]
EC50 (HEK293T cells): 1310 nM
Toxicity rescue (HEK293T cells): 387%

EC50 (CDK12–cyclin K and DDB1; [2]): 17.6 nM
TR-FRET signal at compound concentration 0.468 nM (CDK12–cyclin K and DDB1; raw replicate titration data): 0.3438 and 0.3184 and 0.1924 and 0.2024
TR-FRET signal at compound concentration 0.468 nM (CDK12–cyclin K and DDB1; raw titration data): 0.3438 and 0.3184 and 0.1924 and 0.2024
TR-FRET signal at compound concentration 2.16 nM (CDK12–cyclin K and DDB1; raw replicate titration data): 0.4192 and 0.3926 and 0.2807 and 0.3027
TR-FRET signal at compound concentration 2.16 nM (CDK12–cyclin K and DDB1; raw titration data): 0.4192 and 0.3926 and 0.2807 and 0.3027
TR-FRET signal at compound concentration 3.6 nM (CDK12–cyclin K and DDB1; raw replicate titration data): 0.579 and 0.5213 and 0.4737 and 0.5178
TR-FRET signal at compound concentration 3.6 nM (CDK12–cyclin K and DDB1; raw titration data): 0.579 and 0.5213 and 0.4737 and 0.5178
TR-FRET signal at compound concentration 7.92001 nM (CDK12–cyclin K and DDB1; raw replicate titration data): 0.9688 and 0.8489 and 0.8819 and 0.9925
TR-FRET signal at compound concentration 7.92001 nM (CDK12–cyclin K and DDB1; raw titration data): 0.9688 and 0.8489 and 0.8819 and 0.9925
TR-FRET signal at compound concentration 15.84 nM (CDK12–cyclin K and DDB1; raw replicate titration data): 1.662 and 1.49 and 2.462 and 1.9374
TR-FRET signal at compound concentration 15.84 nM (CDK12–cyclin K and DDB1; raw titration data): 1.662 and 1.49 and 2.462 and 1.9374
TR-FRET signal at compound concentration 30.96 nM (CDK12–cyclin K and DDB1; raw replicate titration data): 3.334 and 2.673 and 3.406 and 3.32
TR-FRET signal at compound concentration 30.96 nM (CDK12–cyclin K and DDB1; raw titration data): 3.334 and 2.673 and 3.406 and 3.32
TR-FRET signal at compound concentration 62.6401 nM (CDK12–cyclin K and DDB1; raw replicate titration data): 4.043 and 3.673 and 3.819 and 3.799
TR-FRET signal at compound concentration 62.6401 nM (CDK12–cyclin K and DDB1; raw titration data): 4.043 and 3.673 and 3.819 and 3.799
TR-FRET signal at compound concentration 125.28 nM (CDK12–cyclin K and DDB1; raw replicate titration data): 4.112 and 3.943 and 3.866 and 3.944
TR-FRET signal at compound concentration 125.28 nM (CDK12–cyclin K and DDB1; raw titration data): 4.112 and 3.943 and 3.866 and 3.944
TR-FRET signal at compound concentration 244.8 nM (CDK12–cyclin K and DDB1; raw replicate titration data): 4.2103 and 4.005 and 3.909 and 3.827
TR-FRET signal at compound concentration 244.8 nM (CDK12–cyclin K and DDB1; raw titration data): 4.2103 and 4.005 and 3.909 and 3.827
TR-FRET signal at compound concentration 993.601 nM (CDK12–cyclin K and DDB1; raw replicate titration data): 4.121 and 4.04 and 3.857 and 3.873
TR-FRET signal at compound concentration 993.601 nM (CDK12–cyclin K and DDB1; raw titration data): 4.121 and 4.04 and 3.857 and 3.873
TR-FRET signal at compound concentration 2001.6 nM (CDK12–cyclin K and DDB1; raw replicate titration data): 4.101 and 3.97 and 3.793 and 3.647
TR-FRET signal at compound concentration 2001.6 nM (CDK12–cyclin K and DDB1; raw titration data): 4.101 and 3.97 and 3.793 and 3.647
EC50 (CDK12–cyclin K and DDB1; [3]): 18 ± 1 nM
IC50 (CDK12–cyclin K; Supplementary Table 2, read-out: Lanthascreen IC50 [nM] CDK12): 1 nM
Lanthascreen raw signal, sheet CDK12 (CDK12–cyclin K; compound 1.02544 nM): 0.01164 and 0.009885
Lanthascreen raw signal, sheet CDK12 (CDK12–cyclin K; compound 3.15521 nM): 0.008674 and 0.009398
Lanthascreen raw signal, sheet CDK12 (CDK12–cyclin K; compound 9.46563 nM): 0.007398 and 0.008542
Lanthascreen raw signal, sheet CDK12 (CDK12–cyclin K; compound 31.5521 nM): 0.006709 and 0.008514
Lanthascreen raw signal, sheet CDK12 (CDK12–cyclin K; compound 99.3891 nM): 0.005942 and 0.005764
Lanthascreen raw signal, sheet CDK12 (CDK12–cyclin K; compound 315.521 nM): 0.005543 and 0.005183
Lanthascreen raw signal, sheet CDK12 (CDK12–cyclin K; compound 3155.21 nM): 0.004896 and 0.004614
Lanthascreen raw signal, sheet CDK12 (CDK12–cyclin K; compound 10002 nM): 0.00468 and 0.003424
IC50 (CDK9–cyclin T; Supplementary Table 2, read-out: Lanthascreen IC50 [nM] CDK9): 5 nM
Lanthascreen TR-FRET signal (raw ratio), sheet CDK9 (CDK9–cyclin T; compound 1.02544 nM): 0.01641 and 0.01302
Lanthascreen TR-FRET signal (raw ratio), sheet CDK9 (CDK9–cyclin T; compound 3.15521 nM): 0.01102 and 0.01312
Lanthascreen TR-FRET signal (raw ratio), sheet CDK9 (CDK9–cyclin T; compound 9.46563 nM): 0.008363 and 0.009049
Lanthascreen TR-FRET signal (raw ratio), sheet CDK9 (CDK9–cyclin T; compound 31.5521 nM): 0.005358 and 0.007058
Lanthascreen TR-FRET signal (raw ratio), sheet CDK9 (CDK9–cyclin T; compound 99.3891 nM): 0.003738 and 0.004042
Lanthascreen TR-FRET signal (raw ratio), sheet CDK9 (CDK9–cyclin T; compound 315.521 nM): 0.003575 and 0.004296
Lanthascreen TR-FRET signal (raw ratio), sheet CDK9 (CDK9–cyclin T; compound 10002 nM): 0.002963 and 0.00293
Lanthascreen signal, sheet CDK2 (CDK2–cyclin A; Compound 1.02544 nM): 0.009698 and 0.009238
Lanthascreen signal, sheet CDK2 (CDK2–cyclin A; Compound 3.15521 nM): 0.009437 and 0.009539
Lanthascreen signal, sheet CDK2 (CDK2–cyclin A; Compound 9.46563 nM): 0.008356 and 0.007045
Lanthascreen signal, sheet CDK2 (CDK2–cyclin A; Compound 31.5521 nM): 0.006783 and 0.006389
Lanthascreen signal, sheet CDK2 (CDK2–cyclin A; Compound 99.3891 nM): 0.003942 and 0.005883
Lanthascreen signal, sheet CDK2 (CDK2–cyclin A; Compound 315.521 nM): 0.002917 and 0.004435
Lanthascreen signal, sheet CDK2 (CDK2–cyclin A; Compound 3155.21 nM): 0.002797 and 0.003541
Lanthascreen signal, sheet CDK2 (CDK2–cyclin A; Compound 10002 nM): 0.002382 and 0.002785
IC50 (CDK2–cyclin A; Supplementary Table 2, read-out: Lanthascreen IC50 [nM] CDK2): 31 nM
SMILES: CC(C)n1cnc2c(NCc3ccc(-c4ccccn4)cc3)nc(N3CCCC[C@H]3CCO)nc21 [DS70]
EC50 (HEK293T cells): 265 nM
Toxicity rescue (HEK293T cells): 30%
CDK inhibitory selectivity, result in words (CDK12–cyclin K; Lanthascreen across CDK2/9/12): more pronounced pan-CDK engagement than CR8
